Consider three compounds from patent publication US11535633B2, “Fused tricyclic heterocycle compounds and therapeutic uses thereof” (Jiangsu Hengrui Medicine Co., Ltd., priority 2018, dated 2022).

Assay [1] deals with T1, hSTING c-terminal domain (purified hSTING aa154-342) (Homo sapiens, UniProt Q86WV6).
T1 construct: Purified hSTING (aa154-342)
The assay can be described thus: Thermal shift assay for measuring the relative binding affinity to hSTING c-terminal domain. Conditions: Tm of sample minus mean Tm of negative control (buffer, 2% DMSO), SYPRO Orange. As for the experimental part:
Test Example 1. Thermal Shift Assay for Measuring the Relative Binding Affinity to hSTING c-Terminal Domain
From each of the 10 mM stock solutions of compounds in DMSO, dilutions are made to create samples with three concentrations 10 mM, 5 mM and 2.5 mM. From these dilutions a final 50 fold dilution is made into assay buffer, giving concentrations of 200 μM, 100 μM, and 50 μM. From each of the buffer dilutions, 5 μL is added to the 384 well assay plate. A positive control is setup with cGAMP using the same dilution scheme as the ligands. A baseline thermal shift for the negative control is determined using buffer and 2% DMSO.
An aliquot of protein is thawed on ice and SYPRO orange reagent is brought to room temperature. The 5000× SYPRO orange stock is diluted in assay buffer to a concentration of 10×. Protein is diluted to a concentration of 10 μM in the prepared buffer/dye solution. Five micro-liters of protein/buffer/dye solution is added to each of the sample and control wells, and the plate is sealed with the provided films. The plate is centrifuged for 5 min at 20° C. at 1000 rpm.
On the Light Cycler instrument, measurements are made over a temperature gradient from 20° C. to 99° C. at 0.07° C./s and data acquisitions collected at a rate of 8/° C. is used to measure the change in fluorescence as a function of temperature. Data analysis is performed using the Roche Light Cycler Software to determine the melting temperature (Tm ° C.) of each sample. A mean Tm ° C. for the negative control is calculated and subtracted from each of the samples to generate the ΔTm ° C. values for each of the ligands.
The relative binding affinity to hSTING c-terminal domain of the compounds of the present invention was determined by the above assay, and ΔTm ° C. values are shown in the following table 1.

Assay [2] deals with T2, STING in THP1-Dual KI-hSTING-R232 cells (Homo sapiens, UniProt Q86WV6, H232R).
T2 construct: host or cells: THP1-Dual KI-hSTING-R232 cells (human monocytic THP-1 reporter line)
T2 sequence (Q86WV6 whole entry H232R): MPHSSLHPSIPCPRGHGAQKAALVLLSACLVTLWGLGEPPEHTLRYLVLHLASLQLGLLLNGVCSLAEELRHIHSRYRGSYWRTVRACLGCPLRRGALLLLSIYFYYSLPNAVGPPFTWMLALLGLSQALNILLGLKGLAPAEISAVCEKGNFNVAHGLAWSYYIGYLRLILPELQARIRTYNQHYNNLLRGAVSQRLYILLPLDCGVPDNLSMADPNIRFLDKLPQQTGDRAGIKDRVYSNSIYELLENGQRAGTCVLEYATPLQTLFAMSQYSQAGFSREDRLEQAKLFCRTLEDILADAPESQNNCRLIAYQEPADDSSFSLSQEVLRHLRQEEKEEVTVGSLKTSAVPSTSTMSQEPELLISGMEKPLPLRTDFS
The assay can be described thus: Human THP1 reporter cell assay (IRF luciferase reporter). The assay is classed as cell-based. Conditions: 24 hours incubation. As for the experimental part:
Test Example 2. Human THP1 Reporter Cell Assay
• 1. Human THP1-Dual KI-hSTING-R232 Cells (InvivoGen, Cat. #thpd-r232) • 2. QUANTI-LUC (InvivoGen, Cat. #rep-qlc2) • 3. Media for cell culture and compound dilution: RPMI with high glucose and glutamine (Genesee, Cat. #25-506), 10% fetal bovine serum (Life Technologies, Cat. #10082147), 25 mM HEPES (Genesee, Cat. #25-534), 100 μg/ml Normocin (InvivoGen, Cat. #ant-nr-2), 10 μg/ml blasticidin (InvivoGen, Cat. #ant-bl-05), 100 μg/ml Zeocin (InvivoGen, Cat. #ant-zn-5p) and Penicillin-Streptomycin (100×) (Life Technologies, Cat. #15140122) • 4. Infinite M1000 plate reader (TECAN) Experimental Procedure
Activation of STING in THP1-Dual KI-hSTING-R232 cells was determined by measuring the luminescence signal resulting from the expression of the IRF luciferase reporter gene. All reagent preparation and assay procedures were conducted according to the protocols provided by InvivoGen. In brief, test compounds and cells (1×10^5 cells per well) were dispensed into 96-well plates with a final volume per well of 150 μl. Plates were incubated in a humidified, 5% CO2 incubator at 37° C. for 24 hours. The expression level of the reporter gene was measured by transferring 20 μl of the supernatant to a non-transparent 96-well plate to which 50 μl of QUANTI-LUC was dispensed into each well. The resulting luminescence signal was immediately read using a TECAN plate reader. The background luminescence signal from media was subtracted. The fold induction effect of the luminescence signal at each compound concentration was determined relative to controls that lack compound treatment. The plot of fold induction effect versus the log of compound concentration was fit in GraphPad Prism with a 4-parameter concentration response equation to calculate EC50 and Emax.
Activation of STING in THP1 of the compounds in the present invention was determined by the above assay, and EC50 values are shown in the following table 2.

A further assay deals with Human PBMC cells. The assay can be described thus: IFNβ secretion in human PBMC. The assay is classed as cell-based. To be noted: IFNβ in supernatant by ELISA, 5 hours incubation. Here is the method:
Test Example 3. IFNβ Secretion in Human PBMC
• 1. Human PBMC cells (STEMCELL Technologies) • 2. Lymphocyte Medium (Zenbio) • 3. Culture and compound dilution media: RPMI with high glucose and glutamine (Genesee, Cat. #25-506), 10% fetal bovine serum (Life Technologies, Cat. #10082147), 100 μg/ml Normocin (InvivoGen, Cat. #ant-nr-2) and Penicillin-Streptomycin (100×) (Life Technologies, Cat. #15140122) • 4. Human IFNβ Quantikine ELISA kit (R&D systems) • 5. Infinite M1000 plate reader (TECAN) Experimental Procedure
Cryopreserved peripheral blood human mononuclear cells (PBMCs) were rapidly thawed and resuspended in Lymphocyte Media and centrifuged at 500×g for 5 minutes. The supernatant was removed and the cell pellets were gently resuspended in cell culture and compound dilution media. Human PBMC cells were plated in a 96-well format at a concentration of 1.5×10^5 cells per well. The test compounds, at varying concentrations, or vehicle control (<0.3% DMSO) were mixed with the cells giving a final volume of 150 μl per well. The plates were incubated for 5 hours in a humidified, 5% CO2 incubator at 37° C. After incubation, the human IFNβ in the supernatant and the IFNβ standard controls were measured using human IFNβ Quantikine ELISA kit according to the manufacturer's protocol. The absorbance at 450 nm was measured with Infinite M1000 plate reader and corrected by background reading at 540 nm of each well. The amount of […] based on the standard curves. The plot of IFNβ concentration versus the log of compound concentration was fit in GraphPad Prism with a 4-parameter concentration response equation to calculate EC50 and Emax.

Molecules are shown by their SMILES. pEC50: −log10 of the molar value.

T1 sequence (Q86WV6 154-342): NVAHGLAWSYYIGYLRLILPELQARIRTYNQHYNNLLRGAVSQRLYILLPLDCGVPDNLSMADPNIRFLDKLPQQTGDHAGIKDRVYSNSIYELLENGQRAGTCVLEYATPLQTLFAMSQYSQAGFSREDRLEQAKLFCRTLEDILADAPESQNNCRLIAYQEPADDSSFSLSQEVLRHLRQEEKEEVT

As for `C=CC[C@H]1COc2cc(C(N)=O)cc3nc(NC(=O)c4cc(C)nn4CC)n1c23` [Example 1, (S)-3-allyl-2-(1-ethyl-3-methyl-1H-pyrazole-5-carboxamido)-3,4-dihydro-5-oxa-1,2a-diazaacenaphthylene-7-carboxamide], the shift in melting temperature (ΔTm) at 100 µM in assay [1] was 5.7 °C. Besides, the pEC50 was 5.80 in assay [2] and 5.96 in the assay on Human PBMC cells.

Regarding `CC=CCC1COc2cc(C(N)=O)cc3nc(NC(=O)c4cc(C)nn4CC)n1c23` (stereo not drawn) [Example 5, 3-(but-2-en-1-yl)-2-(1-ethyl-3-methyl-1H-pyrazole-5-carboxamido)-3,4-dihydro-5-oxa-1,2a-diazaacenaphthylene-7-carboxamide], the ΔTm at 100 µM in assay [1] worked out at 2.9 °C. The negative-log EC50 (pEC50) in assay [2] is 5.52; in the assay with Human PBMC cells, 5.70.

Turning to `CCn1nc(C)cc1C(=O)Nc1nc2cc(C(N)=O)cc(OC)c2n1CCC[C@H]1COc2cc(C(N)=O)cc3nc(NC(=O)c4cc(C)nn4CC)n1c23` [Example 13, (S)-3-(3-(5-carbamoyl-2-(1-ethyl-3-methyl-1H-pyrazole-5-carboxamido)-7-methoxy-1H-benzo[d]imidazol-1-yl)propyl)-2-(1-ethyl-3-methyl-1H-pyrazole-5-carboxamido)-3,4-dihydro-5-oxa-1,2a-diazaacenaphthylene-7-carboxamide], in assay [1], the shift in melting temperature (ΔTm) at 100 µM was 10.7 °C. Besides, the figures for the pEC50 (in assay [2]; in the assay with Human PBMC cells) were 7.52 and 7.00, respectively.
